Laboratory results from patent US8415312B2, “Compound which is a nystatin derivative” (Biosergen AS, priority 2007, dated 2013).
Values after ≈ are worked out from the molar mass of the structure shown. Values joined by “and” are separate entries in the source; they are usually repeats but may differ in a detail not shown here. Equal entries are not always repeated.

Legend:
[1] = tested on: Aspergillus niger ATCC 16404; test: Antifungal susceptibility study (1), broth microdilution MIC; format: cell-based; settings: lowest concentration preventing any visible growth, read at 48 hours, 35° C., RPMI 1640 pH 7.0
Protocol: (§1) ACROS ORGANICS, New Jersey, USA), pH 7.0, was used in study. […] Then these DMSO solutions were diluted 50-fold (first 10-fold and then 5-fold) in the test medium. […] The solutions were prepared just before using. The organisms used for susceptibility testing were: Candida albicans ATCC 14053, Cryptococcus humicolus ATCC 9949, Aspergillus niger ATCC 16404 and Fusarium oxysporum VKM F-140 (=CMI, IMI 90473). Organisms were stored on potato dextrose agar […] 50% glycerol solution at -70° C. For short-term storage, stock cultures were stored on agar […] 4° C. The cultures of yeasts were sub-cultured onto Sabouraud dextrose (SAB) agar and incubated for 24 hours at 35° C. (Candida albicans) or for 48 hours at 25° C. (Cryptococcus humicolus) to obtain a freshly grown pure culture. The cultures of moulds were sub-cultured onto potato dextrose agar and incubated for 7 days at 35° C. […] (Fusarium oxysporum) to ensure maximum sporulation. […] Finally, the suspensions were vortexed for 15 s to break up clumps of cells and then filtered through four layers of sterile gauze. The densities of conidial spore suspensions was measured at 530 nm and adjusted to 0.09-0.11 for Aspergillus niger and 0.15-0.17 for Fusarium oxysporum. These suspensions were diluted 1:50 with the standard medium. […] Inoculum quantitation was performed by plating dilution of the inoculum on Sabouraud dextrose agar to determine the viable number of CFU per milliliter. Sterile 96-well flat-bottomed microtitration plates were used for testing. 100 μl of diluted inocula were dispensed into each microdilution well containing 100 μl of the double dilutions of compounds. Drug-free and yeast/mould-free controls were included. Microdilution trays were incubated at 35° C. (Candida albicans and moulds) or 25° C. (Cryptococcus humicolus) without agitation and observed for the presence or absence of visible growth. […] Minimal inhibitory concentrations (MICs) were read at 48 hours.

[2] = tested on: Fusarium oxysporum VKM F-140; test: as above; format: cell-based; settings: lowest concentration preventing any visible growth, read at 48 hours, 35° C., RPMI 1640 pH 7.0
Protocol: as §1

[3] = tested on: Candida albicans ATCC 14053; test: as above; format: cell-based; settings: lowest concentration preventing any visible growth, read at 48 hours, 35° C., RPMI 1640 pH 7.0
Protocol: (§2) ACROS ORGANICS, New Jersey, USA), pH 7.0, was used in study. […] Then these DMSO solutions were diluted 50-fold (first 10-fold and then 5-fold) in the test medium. […] The solutions were prepared just before using. The organisms used for susceptibility testing were: Candida albicans ATCC 14053, Cryptococcus humicolus ATCC 9949, Aspergillus niger ATCC 16404 and Fusarium oxysporum VKM F-140 (=CMI, IMI 90473). Organisms were stored on potato dextrose agar […] 50% glycerol solution at -70° C. For short-term storage, stock cultures were stored on agar […] 4° C. The cultures of yeasts were sub-cultured onto Sabouraud dextrose (SAB) agar and incubated for 24 hours at 35° C. (Candida albicans) or for 48 hours at 25° C. (Cryptococcus humicolus) to obtain a freshly grown pure culture. The cultures of moulds were sub-cultured onto potato dextrose agar and incubated for 7 days at 35° C. […] (Fusarium oxysporum) to ensure maximum sporulation. […] Inoculum quantitation was performed by plating dilution of the inoculum on Sabouraud dextrose agar to determine the viable number of CFU per milliliter. Sterile 96-well flat-bottomed microtitration plates were used for testing. 100 μl of diluted inocula were dispensed into each microdilution well containing 100 μl of the double dilutions of compounds. Drug-free and yeast/mould-free controls were included. Microdilution trays were incubated at 35° C. (Candida albicans and moulds) or 25° C. (Cryptococcus humicolus) without agitation and observed for the presence or absence of visible growth. […] Minimal inhibitory concentrations (MICs) were read at 48 hours.

[4] = tested on: Cryptococcus humicolus ATCC 9949; test: as above; format: cell-based; settings: lowest concentration preventing any visible growth, read at 48 hours, 25° C., RPMI 1640 pH 7.0
Protocol: as §2

[5] = tested on: erythrocytes; test: In vitro toxicity study, haemolysis (Tables 11 and 12); format: cell-based, horse; settings: for Haemolysis of erythrocytes, Mean ± S.E.M.: 25 μM (Table 12); for Haemolysis of erythrocytes: 25 μM, individual blood samples (Table 12)
Protocol: The toxicity of various nystatin derivatives was tested at 2 and 5 μg/mL and at 25 μM.
Compounds were dissolved in DMSO at 5 mg/mL and 0.1 mL samples with different concentrations were prepared in DMSO. The samples were mixed with 0.9 mL PBS buffer containing 2.5% horse blood (PBS-HB; kept on ice) and incubated at 37° C. for 30 min without agitation.
Cells were pelleted by centrifugation at 5000 rpm for 5 min and haemolysis was evaluated by measuring OD545. 100% haemolysis was defined as the OD545 value obtained from a suspension of 2.5% horse blood in distilled water.

[6] = tested on: mice (C57B1/6xDBA/2)F1 B6D2F1; settings: single injection into tail vein, probit analysis
Protocol: Male mice of hybrids of first generation (C57B1/6xDBA/2)F1 B6D2F1, weight 20-22 g., received from the Central farm. “Kryukovo” of Russian Academies of Medical Science (RAMS) were used. Animals were maintained in a vivarium in plastic cages (with hardwood bedding in environmentally controlled conditions: 24±1° C., 12/12 hours light/dark cycle) on a standard diet of bricketed forages with easy access to drinking water (ad libitum). After a 2-week quarantine period, healthy animals were used in experimental work.
The solutions were prepared as follows: dry antibiotic substances (5 mg) were mixed with dry sodium deoxycholate (4.1 mg) in a sterile glass vial. 10 mL of phosphate buffer (NaH2PO4—1.59 g; Na2HPO4—0.96 g; H2O—to 100 mL) was added to the mix and the suspension was immediately subjected to vigorous shaking for 10 minutes until homogeneous suspensions were formed.
Preparations of amphotericin B and S44HP were also prepared in the same way.
The antibiotic preparations were singly injected into the mice's tail vein within 1-1.5 hours after the preparation of solutions. […] Each antibiotic was used in a range of doses resulting in 0% to 100% lethality and a minimum of 3 intermediate doses. Animals were randomized into groups, each containing 6 mice.

[7] = tested on: Candida albicans (strain 14053 ATCC); test: Model of the candidiasis sepsis of mice, kidney burden; format: in vivo
Protocol: In experiments used female mice of hybrids of first generation (C57B1/6xDBA/2)F1 (B6D2F1), weight 18-20 g., received from the Central farm “Kryukovo” of Russian Academies of Medical Science (RAMS). Animals were maintained in Institute' vivarium in plastic cages (with hardwood bedding in environmentally controlled room: 24±1° C., 12/12 hours light/dark cycle) on a standard diet of bricketed forages with an easy approach to drinking water (ad libitum). After 2-week quarantine healthy animals were used in experimental work.
A preparation of comparison was amphotericin B (pure). Solutions of tested preparations prepared ex tempore by the technique specified by the customer.
Animals were housed on 3 mice and infected intravenously with culture Candida albicans in a doze 1.0 million CFU/mouse in volume of 0.1 ml. It is necessary to note, that doze Candida albicans remained a constant in all experiments. In 30 minutes after infection to mice carried out the first intravenous introduction of tested preparations in corresponding dozes in volume of 0.2 ml (with a speed of 0.2 ml/30 second).
Experiment has been planned in such a manner that in each experiment one doze (both for amphotericin B was used, and for tested preparations), each doze entered daily within four days, since day of infection (0, 1, 2 and 3 days). At each experiment there was a group untreated, infected with Candida albicans animals. Also there was a group “placebo”, intact (not infected) animals, which intravenously (in the same volume as medical preparations) injected 0.2 ml of solvent—phosphatic buffer +5% glucose (1:1).
On the post challenge 5th day of experiment, mice were weighed and euthanized (killed) by a cervical dislocation. Then, in sterile conditions, Candida albicans burdens were determined by viable counting of homogenates from the kidneys. The kidneys, which were removed aseptically and weighed, pounded in porcelain mortars with sterile corundum, did dilutions of the received suspensions and sowed on Petri dishes with agar Saburo, incubated for 48 hours at temperature 35° C., then counted up developed colonies Candida albicans and recalculated their quantity on 1 g of kidney' tissue. The first dilution was 10^−1. Zero result at this cultivation accepted for 5 CFU/g.
For the basic criterion of an assessment of the investigated preparations the maximal effect of the Amphotricin B was accepted (effective dose, ED).
For significant accepted distinctions of average at P≦0.05 at comparison by Student t-criterion.

[8] = dose 0.16 mg/kg/d i.v. for four days, day 5, n=3 mice
[9] = dose 0.62 mg/kg/d i.v. for four days, day 5, n=3 mice
[10] = dose 2.5 mg/kg/d i.v. for four days, day 5, n=3 mice
[11] = dose 10 mg/kg/d i.v. for four days, day 5, n=3 mice, zero result accepted for 5 CFU/g

Row | Structure (SMILES) | MIC Aspergillus niger ATCC 16404 [1] | MIC Fusarium oxysporum VKM F-140 [2] | MIC Candida albicans ATCC 14053 [3] | MIC Cryptococcus humicolus ATCC 9949 [4] | Haemolysis of erythrocytes, Mean ± S.E.M. [5] | Haemolysis of erythrocytes [5] | LD50 [6] | MTD [6] | Candida albicans burden in kidneys (Mean) [7, 8] | Candida albicans burden in kidneys (Mean) [7, 9] | Candida albicans burden in kidneys (Mean) [7, 10] | Candida albicans burden in kidneys (Mean) [7, 11] | Candida albicans burden in kidneys (Mean) ([7]; in vivo, iv, 1.25 mg/kg/day) | Candida albicans burden in kidneys (Mean) ([7]; dose 1.25 mg/kg/d i.v. for four days, day 5, n=3 mice)
1 | CC1C=CC=CC=CC=CC=CC=CC=CC(OC2OC(C)C(O)C(NCC3(O)OCC(O)C(O)C3O)C2O)CC2OC(O)(CC(O)C(O)CCC(O)CC(O)CC(O)CC(=O)OC(C)C(C)C1O)CC(O)C2C(=O)O (single isomer, unassigned) [Compound 17] | 2 µg/mL (≈ 1.84 µM) | 8 µg/mL (≈ 7.36 µM) | 1 µg/mL (≈ 0.921 µM) | 1 µg/mL (≈ 0.921 µM) | 2.4 ± 0.6% | 1.7% (2×) and 2.1% and 0.8% and 3.3% and 4.8% |  |  |  |  |  |  |  | 
2 | CC1C=CC=CC=CC=CC=CC=CC=CC(OC2OC(C)C(O)C(NCC3(O)OCC(O)C(O)C3O)C2O)CC2OC(O)(CC(O)C(O)CCC(O)CC(O)CC(O)CC(=O)OC(C)C(C)C1O)CC(O)C2C(=O)O (single isomer, unassigned) [Compound 18] | 2 µg/mL (≈ 1.84 µM) | 8 µg/mL (≈ 7.36 µM) | 1 µg/mL (≈ 0.921 µM) | 1 µg/mL (≈ 0.921 µM) | 3.9 ± 1.3% | 3.0% and 3.2% and 9.7% and 1.0% and 1.5% and 5.3% |  |  |  |  |  |  |  | 
3 | CC1C=CC=CC=CC=CC=CC=CC=CC(OC2OC(C)C(O)C(N)C2O)CC2OC(O)(CC(O)CCCC(O)CC(O)CC(O)CC(=O)OC(C)C(C)C1O)CC(O)C2C(=O)NCCN(C)C.NC(CCC(=O)O)C(=O)O (centres unmarked) [Compound 27] |  |  |  |  |  |  | 20.6 mg/kg | 10.8 mg/kg |  |  |  |  |  | 
4 | CC1C=CC=CC=CC=CC=CC=CC=CC(OC2OC(C)C(O)C(N)C2O)CC2OC(O)(CC(O)C(O)CCC(O)CC(O)CC(O)CC(=O)OC(C)C(C)C1O)CC(O)C2C(=O)NCCN(C)C.NC(CCC(=O)O)C(=O)O (centres unmarked) [Compound 28] |  |  |  |  |  |  | 22.1 mg/kg | 14.7 mg/kg |  |  |  |  |  | 
5 | CC1O[C@@H](O[C@H]2/C=C/C=C/C=C/C=C/C=C/C=C/C=C/[C@H](C)[C@@H](O)[C@@H](C)[C@H](C)OC(=O)C[C@H](O)C[C@H](O)C[C@H](O)CC[C@@H](O)[C@H](O)C[C@]3(O)C[C@H](O)[C@@H](C(=O)NCCN(C)C)[C@H](C2)O3)[C@H](O)C(NCC2(O)OC[C@@H](O)[C@@H](O)[C@@H]2O)[C@@H]1O.Cl (some centres unmarked) [Compound 41] | 1 µg/mL | 2 µg/mL | 0.5 µg/mL | 1 µg/mL |  |  | 38.6 mg/kg | 21.2 mg/kg | 67000 CFU/g | 22667 CFU/g | 1667 CFU/g | 5 CFU/g | 2767 CFU/g | 
6 | CC1O[C@@H](O[C@H]2/C=C/C=C/C=C/C=C/C=C/C=C/C=C/[C@H](C)[C@@H](O)[C@@H](C)[C@H](C)OC(=O)C[C@H](O)C[C@H](O)C[C@H](O)CC[C@@H](O)[C@H](O)C[C@]3(O)C[C@H](O)[C@@H](C(=O)NCCN(C)C)[C@H](C2)O3)[C@H](O)C(N)[C@@H]1O (some centres unmarked) [Compound 48, N,N-dimethylaminoethyl (DMAE) S44HP Amide] | 1 µg/mL (≈ 1.01 µM) | 1 µg/mL (≈ 1.01 µM) | 0.5 µg/mL (≈ 0.503 µM) | 0.5 µg/mL (≈ 0.503 µM) |  |  | 32.2 mg/kg | 25.9 mg/kg | 51667 CFU/g | 3233 CFU/g | 63 CFU/g | 5 CFU/g |  | 1487 CFU/g
